Data on five cell lines can be found in the supplement of paper PMC10307832.

What all share (experiment): relative viability (nuclei count vs DMSO), 5 days (fraction); higher = more cells survive
Compound in experiment [1]: CCn1c(-c2nonc2N)nc2c(C#CC(C)(C)O)ncc(OC[C@H]3CCCNC3)c21 + COc1cccc2cc(-c3nc([C@H]4CC[C@H](C(=O)O)CC4)n4ncnc(N)c34)[nH]c12 [OSI-027] (partner 0.5 µM)
Summed up:
(§1)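 Dosing by pin tool came one day after lung cancer cell lines were seeded in 1536-well plates, using either one drug or a fixed anchor-drug dose plus five library-drug doses (not always all listed) in √10 steps. After 5 days, nuclei were counted on 4× images. Relative viability is treated-well nuclei count divided by vehicle-well nuclei count, and values are medians of duplicate plates.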

Compound in experiment [2]: CCOC1=CC=CC=C1N=NC2=C(NN(C2=O)C3=NC(=CS3)C4=CC=CC=C4)C [BAM7] + CS(=O)(=O)CCNCc1ccc(-c2ccc3ncnc(Nc4ccc(OCc5cccc(F)c5)c(Cl)c4)c3c2)o1 [Lapatinib] (partner 2 µM)
Summed up:
as §1

Compound in experiment [3]: CCn1c(-c2nonc2N)nc2c(C#CC(C)(C)O)ncc(OC[C@H]3CCCNC3)c21 + O=C(c1cc(Cc2n[nH]c(=O)c3ccccc23)ccc1F)N1CCN(C(=O)C2CC2)CC1 [Olaparib] (partner 8 µM)
Summed up: as §1

Compound in experiment [4]: CCOC1=CC=CC=C1N=NC2=C(NN(C2=O)C3=NC(=CS3)C4=CC=CC=C4)C [BAM7] + COc1cc2c(Oc3ccc(NC(=O)C4(C(=O)Nc5ccc(F)cc5)CC4)cc3F)ccnc2cc1OCCCN1CCOCC1 [Foretinib] (partner 0.25 µM)
Summed up: as §1

In the case of PC-14, the relative viability in experiment [1] (first compound 0.01 µM) worked out at 0.706; in experiment [1] (first compound 0.03162 µM) it was 0.968; in experiment [1] (first compound 0.1 µM), 0.797; in experiment [1] (first compound 0.3162 µM), 0.499; in experiment [1] (first compound 1 µM), 0.613; in experiment [2] (first compound 0.5 µM), 0.334. Moreover, the relative viability in experiment [2] (first compound 5 µM) came out at 0.324; in experiment [2] (first compound 15.81 µM), 0.309; in experiment [2] (first compound 50 µM) it was 0.351; in experiment [3] (first compound 0.01 µM), 0.309; in experiment [3] (first compound 0.03162 µM), 0.244; in experiment [3] (first compound 0.1 µM) it was 0.34. Moreover, the relative viability in experiment [3] (first compound 0.3162 µM) is 0.378; in experiment [3] (first compound 1 µM), 0.412; in experiment [4] (first compound 0.5 µM) it was 0.981; in experiment [4] (first compound 5 µM), 1.03; in experiment [4] (first compound 15.81 µM) it was 0.888; in experiment [4] (first compound 50 µM), 1.01.

Turning to RERF-LC-KJ, the relative viability turned out to be 0.497 in experiment [1] (first compound 0.01 µM); 0.564 in experiment [1] (first compound 0.03162 µM); 0.526 in experiment [1] (first compound 0.1 µM); 0.446 in experiment [1] (first compound 0.3162 µM); 0.395 in experiment [1] (first compound 1 µM); 0.868 in experiment [2] (first compound 0.5 µM). Moreover, the relative viability stood at 0.815 in experiment [2] (first compound 5 µM); 0.802 in experiment [2] (first compound 15.81 µM); 0.791 in experiment [2] (first compound 50 µM); 1 in experiment [3] (first compound 0.01 µM); 0.87 in experiment [3] (first compound 0.03162 µM); 0.854 in experiment [3] (first compound 0.1 µM). Besides, the relative viability in experiment [3] (first compound 0.3162 µM) was 0.854; in experiment [3] (first compound 1 µM), 0.797; in experiment [4] (first compound 0.5 µM) it was 0.821; in experiment [4] (first compound 5 µM), 0.832; in experiment [4] (first compound 15.81 µM) it was 0.81; in experiment [4] (first compound 50 µM), 0.833.

Regarding SK-LU-1, the relative viability in experiment [1] (first compound 0.01 µM) came to 0.387; in experiment [1] (first compound 0.03162 µM), 0.365; in experiment [1] (first compound 0.1 µM), 0.318; in experiment [1] (first compound 0.3162 µM) it was 0.29; in experiment [1] (first compound 1 µM), 0.343; in experiment [2] (first compound 0.5 µM) it was 0.78. Further, the relative viability in experiment [2] (first compound 5 µM) was determined as 1.02; in experiment [2] (first compound 15.81 µM), 0.846; in experiment [2] (first compound 50 µM) it was 0.897; in experiment [3] (first compound 0.01 µM), 0.49; in experiment [3] (first compound 0.03162 µM), 0.723; in experiment [3] (first compound 0.1 µM), 0.482. Besides, the relative viability came out at 0.43 in experiment [3] (first compound 0.3162 µM); 0.461 in experiment [3] (first compound 1 µM); 0.875 in experiment [4] (first compound 0.5 µM); 0.925 in experiment [4] (first compound 5 µM); 0.72 in experiment [4] (first compound 15.81 µM); 0.857 in experiment [4] (first compound 50 µM).

For the cell line SK-MES-1, the relative viability came out at 0.642 in experiment [1] (first compound 0.01 µM); 0.598 in experiment [1] (first compound 0.03162 µM); 0.552 in experiment [1] (first compound 0.1 µM); 0.531 in experiment [1] (first compound 0.3162 µM); 0.609 in experiment [1] (first compound 1 µM); 0.488 in experiment [2] (first compound 0.5 µM). Besides, the relative viability came to 0.438 in experiment [2] (first compound 5 µM); 0.423 in experiment [2] (first compound 15.81 µM); 0.505 in experiment [2] (first compound 50 µM); 0.658 in experiment [3] (first compound 0.01 µM); 0.72 in experiment [3] (first compound 0.03162 µM); 0.678 in experiment [3] (first compound 0.1 µM). In addition, the relative viability is 0.649 in experiment [3] (first compound 0.3162 µM); 0.702 in experiment [3] (first compound 1 µM); 0.913 in experiment [4] (first compound 0.5 µM); 1.06 in experiment [4] (first compound 5 µM); 0.937 in experiment [4] (first compound 15.81 µM); 1.08 in experiment [4] (first compound 50 µM).

As to SW 1573, the relative viability was 0.59 in experiment [1] (first compound 0.01 µM); 0.559 in experiment [1] (first compound 0.03162 µM); 0.514 in experiment [1] (first compound 0.1 µM); 0.34 in experiment [1] (first compound 0.3162 µM); 0.27 in experiment [1] (first compound 1 µM); 1.17 in experiment [2] (first compound 0.5 µM). The relative viability in experiment [2] (first compound 5 µM) worked out at 1.23; in experiment [2] (first compound 15.81 µM) it was 1.09; in experiment [2] (first compound 50 µM) it was 1.33; in experiment [3] (first compound 0.01 µM), 0.553; in experiment [3] (first compound 0.03162 µM), 0.39; in experiment [3] (first compound 0.1 µM) it was 0.477. Further, the relative viability in experiment [3] (first compound 0.3162 µM) was determined as 0.399; in experiment [3] (first compound 1 µM) it was 0.364; in experiment [4] (first compound 0.5 µM), 0.939; in experiment [4] (first compound 5 µM), 0.997; in experiment [4] (first compound 15.81 µM) it was 1.04; in experiment [4] (first compound 50 µM) it was 0.966.
